According to PubChem BioAssay (NCI):
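Values below derive from 48-hour exposures of cells grown in 96-well plates, with endpoints linearly interpolated between the two concentrations bracketing the appropriate inhibition level. GI50 marks 50% less growth. TGI is the concentration that stops growth completely.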

Legend:
Experiment in all cases: inhibition of tumour cell growth, NCI panel, 48 h
ACHN renal = test system: ACHN renal
HCT-116 colon = test system: HCT-116 colon
M14 melanoma = test system: M14 melanoma
MDA-MB-435 = test system: MDA-MB-435
NCI-H226 lung = test system: NCI-H226 lung
NCI-H23 lung = test system: NCI-H23 lung
OVCAR-3 ovarian = test system: OVCAR-3 ovarian
OVCAR-5 ovarian = test system: OVCAR-5 ovarian
SK-MEL-5 melanoma = test system: SK-MEL-5 melanoma
HOP-62 NSCLC = test system: HOP-62 NSCLC

SMILES | GI50 (ACHN renal) [µM] | TGI (ACHN renal) [µM] | GI50 (HCT-116 colon) [µM] | TGI (HCT-116 colon) [µM] | GI50 (M14 melanoma) [µM] | TGI (M14 melanoma) [µM] | GI50 (MDA-MB-435) [µM] | TGI (MDA-MB-435) [µM] | GI50 (NCI-H226 lung) [µM] | TGI (NCI-H226 lung) [µM] | GI50 (NCI-H23 lung) [µM] | TGI (NCI-H23 lung) [µM] | GI50 (OVCAR-3 ovarian) [µM] | TGI (OVCAR-3 ovarian) [µM] | GI50 (OVCAR-5 ovarian) [µM] | TGI (OVCAR-5 ovarian) [µM] | GI50 (SK-MEL-5 melanoma) [µM] | TGI (SK-MEL-5 melanoma) [µM] | TGI (HOP-62 NSCLC) [µM] | GI50 (HOP-62 NSCLC) [µM]
COc1cc(C(=O)N2CCN(c3ncccn3)CC2)c(N)cc1OCc1ccccc1 | > 100 | > 100 | > 100 | > 100 | > 100 | > 100 | > 100 | > 100 | > 100 | > 100 | > 100 | > 100 | 85.6 | > 100 | 29.6 | > 100 | 44.5 | > 100 |  | 
COC1(OC)CC2C(=O)N(Cc3ccccc3)C1C=C2S(=O)(=O)c1ccccc1 (configuration not stated) |  | 44.4 |  | 26.7 |  | 35 |  |  |  | 47.3 |  | 38.1 |  | 28 |  |  |  | 26.7 | > 100 | 
CC(C)N(C(=O)C12C3C4C1(I)C1C2C3(I)C41C(=O)N(C(C)C)C(C)C)C(C)C (configuration not stated) |  | > 100 |  | > 100 |  | > 100 |  |  |  | > 100 |  | > 100 |  | > 100 |  | > 100 |  | > 100 | > 100 | 
Cc1cc(NS(=O)(=O)c2ccc(Nc3c4ccccc4nc4c(C(=O)N5CCN(CCO)CC5)ccc(Cl)c34)cc2)no1 |  |  |  | > 100 |  | > 100 |  |  |  | > 100 |  | > 100 |  | > 100 |  | > 100 |  | > 100 | > 100 | 
O=Cc1ccc2c(c1-c1c(C=O)ccc3c1OCO3)OCO2 |  | > 100 |  | > 100 |  | > 100 |  |  |  | > 100 |  | > 100 |  | > 100 |  | > 100 |  | > 100 | > 100 | 
CCC1CCc2c(c(=O)oc3c2cc(OC)c2cccc(OC)c23)C1 (configuration not stated) |  | > 100 |  | > 100 |  | > 100 |  |  |  | > 100 |  | > 100 |  |  |  | > 100 |  | 80.9 | > 100 | 
O=C1NC(=NCCc2cccc(Cl)c2)S/C1=C\c1ccc2ncccc2c1 | > 25 | > 25 |  |  | > 25 | > 25 | 0.635 | > 25 | > 25 | > 25 | > 25 | > 25 | > 25 | > 25 | > 25 | > 25 | > 25 | > 25 | > 25 | > 25
Cc1c(/C=N/NC(=O)c2ccc(Cl)cc2)c(=O)n(-c2ccccc2)n1C |  | > 100 |  | > 100 |  | > 100 |  |  |  | > 100 |  | > 100 |  | > 100 |  |  |  |  | > 100 | 
O=P1(c2ccccc2)CCCCC1 |  | > 100 |  | > 100 |  | > 100 |  |  |  | > 100 |  | > 100 |  | > 100 |  | > 100 |  | > 100 | > 100 | 
COc1ncc(-c2ccc3ncnc(Nc4cccc(Cl)c4)c3c2)cc1NS(=O)(=O)C1CC1 |  |  |  |  | > 100 | > 100 | > 100 | > 100 |  |  | 3.8 | > 100 |  |  |  |  | > 100 | > 100 |  | 
